In patent US20060199172A1, “Laminated cell culture containing hepatocytes and method for detecting endocrine-like substance” (FUJI PHOTO FILM CO., LTD., priority 2005, published 2006):

Experiments:
[1] = test system: rat primary hepatocytes; assay: AST release into the medium from cultured hepatocytes after adding the substance; assay type: cell-based; conditions: 0.1 μg/ml, measured over time
Procedure: Rat primary hepatocytes (collected by the method described in “Techniques of Tissue Culture, Second edition”, Ed. by Japan Tissue Culture Association, Asakura Publishing, p. 135) were inoculated on a 12-well microplate (FALCON, No. 3505) in an amount of 50000 cells/well and cultured for 24 hours under the conditions of 37° C. and 5% CO2. Separately, the carrier for cell culture prepared in Example 1 was adhered to bottom of a 20-mm petri dish (FALCON, No. 2163) with a small amount of sterilized water. 20,000 cells of rat vascular endothelial cells A-10 (Dainippon Pharmaceutical Co., Ltd.) were inoculated on the carrier for cell culture and cultured for 72 hours under the conditions of 37° C. and 5% CO2. As the medium, 10% FBS Eagle's MEM medium (GIBCO) was used for both cultures. The rat vascular endothelial cell culture obtained was carefully placed on the aforementioned rat primary hepatocytes on the 12-well microplate so that the cell growing side contacted with the rat primary hepatocytes, and cultured for 24 hours under the conditions of 37° C. and 5% CO2. […]
The laminated cell culture prepared in Example 2 and the hepatocytes cultured as monolayer culture was added with 0.1 μg/ml of chloropramazine, and the amount of AST released into the medium was measured over time.

[2] = test system: MCF-7 cells; assay: Detection of endocrine-like substance by number of MCF-7 cells in the laminated cell culture system; assay type: cell-based; conditions: laminated cell culture system (MCF-7 + rat primary hepatocytes + rat vascular endothelial cells), 0.1 μg/ml, 14 days; compared with MCF-7 only and monolayer hepatocytes + MCF-7
Procedure: 40,000 of estrogen-like substance detection cells (MCF-7) were inoculated on a 12-well microplate and cultured for 7 days under the conditions of 37° C. and 5% CO2 to prepare an MCF-7 cell layer.
The carrier for cell culture prepared in Example 1 was adhered to bottom of a 20-mm petri dish (FALCON, No. 2163) with a small amount of sterilized water, and 40,000 cells of rat primary hepatocytes (collected by the method described in “Techniques of Tissue Culture, Second edition”, Ed. by Japan Tissue Culture Association, Asakura Publishing, p. 135) were inoculated on the carrier for cell culture and cultured for 24 hours under the conditions of 37° C. and 5% CO2. In the same manner, 20,000 cells of rat vascular endothelial cells A-10 (Dainippon Pharmaceutical Co., Ltd.) were inoculated on the carrier for cell culture prepared in Example 1 and cultured for 72 hours under the conditions of 37° C. and 5% CO2.
The rat primary hepatocyte cell culture obtained was carefully placed on the MCF-7 cell layer on the 12-well microplate so that the side of the growth of the rat primary hepatocyte was on the side of the MCF-7 cells, and cultured for 24 hours under the conditions of 37° C. and 5% CO2. […]

[3] = test system: rat uterus; conditions: in vivo; cited from earlier work

Compound	amount of AST released into the medium ([1]; laminated cell culture (rat primary hepatocytes + rat vascular endothelial cells A-10))	amount of AST released into the medium ([1]; primary hepatocytes cultured as monolayer culture)	number of MCF-7 cells [2]	rat uterus proliferation test result [3]
CN(C)CCCN1c2ccccc2Sc2ccc(Cl)cc21 [chloropramazine]	increase in the amount of AST was observed	AST was not detected		
CC(C)c1cc(C(C)C)c2ccccc2c1 [2,4-diisopropylnaphthalene]			maximum value	positive
